In ChEMBL document CHEMBL1201862, “PubChem BioAssay data set” (2004):
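Test compounds were applied to cells in 96-well plates for 48 hours at 5 doses. Here, GI50 denotes the concentration required for 50% inhibition of growth.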 The source made the active and inactive calls. Cut-off read from the data, not from the text of the source: active = GI50 up to about 1.1 µM and inactive = higher.

Tests used:
Assay in all cases: NCI tumour cell line growth inhibition, 48 h
[1] = system: HCC 2998
[2] = system: HOP-62
[3] = system: HCT-116
[4] = system: A498
[5] = system: SW-620
[6] = system: CAKI-1
[7] = system: NCI-H460
[8] = system: Malme-3M
[9] = system: TK-10
[10] = system: RXF 393
[11] = system: 786-0
[12] = system: HL-60
[13] = system: SNB-19
[14] = system: UACC-257
[15] = system: SF-539
[16] = system: ACHN
[17] = system: MDA-N
[18] = system: DU-145
[19] = system: Hs-578T
[20] = system: BT-549

Measured: GI50

CCC(C)NC1=C(NC(C)=O)C(=O)c2ccccc2C1=O (centres undefined)
inactive: [1] > 75 µM | [2] > 75 µM | [3] > 75 µM | [4] > 75 µM | [5] 22.5 µM | [6] > 75 µM | [7] > 75 µM | [8] > 75 µM | [9] > 75 µM | [10] > 75 µM | [11] > 7.5 µM | [12] 17.5 µM | [13] > 75 µM | [14] > 75 µM | [15] > 75 µM | [16] > 75 µM

Cc1cc(C)cc(NC(N)=S)c1
inactive: [1] > 100 µM | [2] > 100 µM | [3] 35.5 µM | [4] > 100 µM | [5] 4.06 µM | [6] > 100 µM | [7] > 100 µM | [8] > 100 µM | [9] > 100 µM | [10] 20.2 µM | [11] 92.5 µM | [12] 30.8 µM | [13] > 100 µM | [14] 36.4 µM | [15] > 100 µM | [16] > 100 µM

Cc1c2c(c(C)c3c1[nH]c1ccccc13)CN(C)CC2
inactive: [1] 16.7 µM | [2] 23.2 µM | [3] 16 µM | [4] 19.5 µM | [5] 15.3 µM | [6] 13.2 µM | [7] 16.5 µM | [8] 16.7 µM | [9] 29.4 µM | [10] 17.6 µM | [11] 14.9 µM | [12] 52 µM | [13] 27.4 µM | [14] 17.2 µM | [15] 14.2 µM | [16] 18.2 µM

COC(=O)CCCC1(CCCC(=O)OC)CCCCCCCCC(CCCC(=O)OC)(CCCC(=O)OC)C(=O)C1=O
inactive: [1] > 100 µM | [2] 38.5 µM | [3] 9.44 µM | [4] > 100 µM | [5] > 100 µM | [6] 9.84 µM | [7] 88.1 µM | [8] 26.1 µM | [9] > 100 µM | [10] 1.6 µM | [17] > 100 µM | [18] > 100 µM | [11] 17.1 µM | [12] 2.17 µM | [19] 14.8 µM | [13] > 100 µM | [14] > 100 µM | [15] 25.2 µM | [16] 40.2 µM

COc1cc(CC(C)N)ccc1O (centres undefined)
inactive: [1] > 100 µM | [2] > 100 µM | [3] > 100 µM | [4] > 100 µM | [5] > 100 µM | [6] > 100 µM | [7] > 100 µM | [8] > 100 µM | [9] > 100 µM | [10] > 100 µM | [17] > 100 µM | [18] > 100 µM | [11] > 100 µM | [12] > 100 µM | [19] > 100 µM | [13] > 100 µM | [14] > 100 µM | [15] > 100 µM | [16] > 100 µM

CCOP(=O)(C=C=C(C)C)OCC
inactive: [1] > 100 µM | [2] > 100 µM | [3] > 100 µM | [4] > 100 µM | [5] > 100 µM | [6] > 100 µM | [7] > 100 µM | [8] > 100 µM | [9] > 100 µM | [10] > 100 µM | [17] > 100 µM | [18] > 100 µM | [11] > 100 µM | [12] 94.6 µM | [19] > 100 µM | [13] > 100 µM | [14] > 100 µM | [15] > 100 µM | [16] > 100 µM

COc1ccc(-c2nc(-c3cnccn3)n(COCCO)n2)cc1
inactive: [1] > 100 µM | [2] > 100 µM | [3] > 100 µM | [5] > 100 µM | [20] > 100 µM | [7] > 100 µM | [9] > 100 µM | [10] > 100 µM | [17] > 100 µM | [18] > 100 µM | [11] > 100 µM | [12] > 100 µM | [13] > 100 µM | [14] > 100 µM | [15] > 100 µM

C/C(=N\O)C1CC2C=C(C#N)C1N(Cc1ccccc1)C2 (centres undefined)
inactive: [1] 80.5 µM | [2] > 100 µM | [3] > 100 µM | [4] > 100 µM | [5] > 100 µM | [6] > 100 µM | [7] 74.5 µM | [8] > 100 µM | [9] > 100 µM | [10] > 100 µM | [17] > 100 µM | [18] > 100 µM | [11] > 100 µM | [12] > 100 µM | [19] > 100 µM | [13] > 100 µM | [14] > 100 µM | [15] > 100 µM | [16] 93.8 µM
